Measurements reported in ChEMBL document CHEMBL1201862, “PubChem BioAssay data set” (2004).
Calls of active or inactive are those of the source.

Assays:
[1] = target: T1, Mannose-6-phosphate isomerase (Homo sapiens, UniProt P34949); experiment: MPI inhibition at elevated mannose 6-phosphate – biochemical, fluorescence intensity, high mannose 6-phosphate, primary screen (AID 1220)
T1 sequence (P34949 whole entry): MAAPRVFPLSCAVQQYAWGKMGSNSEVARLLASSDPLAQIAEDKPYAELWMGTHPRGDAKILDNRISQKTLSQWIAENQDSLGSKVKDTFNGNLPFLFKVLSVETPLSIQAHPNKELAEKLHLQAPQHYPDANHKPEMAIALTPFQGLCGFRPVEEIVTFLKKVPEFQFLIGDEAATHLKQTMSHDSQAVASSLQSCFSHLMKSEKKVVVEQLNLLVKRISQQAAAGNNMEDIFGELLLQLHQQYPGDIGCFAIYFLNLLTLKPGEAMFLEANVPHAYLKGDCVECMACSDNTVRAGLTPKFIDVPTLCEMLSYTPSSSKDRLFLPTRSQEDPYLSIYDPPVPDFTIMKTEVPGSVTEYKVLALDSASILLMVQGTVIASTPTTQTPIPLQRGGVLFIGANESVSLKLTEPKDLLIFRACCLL

Cytochrome P450 3A4 = Cytochrome P450 3A4 (Homo sapiens, UniProt P08684);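 note: CYP3A4 tested as one member of a cytochrome P450 panel screen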
Cytochrome P450 2D6 = Cytochrome P450 2D6 (Homo sapiens, UniProt P10635);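 note: CYP2D6 member of a cytochrome P450 panel assay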
Cytochrome P450 2C9 = Cytochrome P450 2C9 (Homo sapiens, UniProt P11712)
[2] = target: DNA dC->dU-editing enzyme APOBEC-3A (Homo sapiens, UniProt P31941); experiment: Dose Response confirmation of small molecule APOBEC3A DNA Deaminase Inhibitors via a fluorescence-based single-stranded DNA deaminase assay. [Related pubchem assays (depositor defined):AID493011, AID493024]; assay type: functional
[3] = target: DNA dC->dU-editing enzyme APOBEC-3G (Homo sapiens, UniProt Q9HC16); assay type: functional;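 note: Dose-response counterscreen measuring inhibition of APOBEC3G DNA deaminase activity, run while confirming APOBEC3A inhibitors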
[4] = target: FAD-linked sulfhydryl oxidase ALR (Homo sapiens, UniProt P55789); experiment: ALR-catalysed DTT oxidation blockers – biochemical, H2O2 detection, luminescence, cherry-pick, dose response (AID 493248)
[5] = target: T2, Polyadenylate-binding protein 1 (Homo sapiens, UniProt P11940); experiment: MLLE binding blockers, Cy5 peptide tracer – biochemical, fluorescence polarization, Cy5-PAM2 peptide, secondary, miRNA deadenylation inhibitor project, dose response (AID 602260); assay type: functional; conditions: read-out: IC50_Mean
[6] = target: T3, Histone-lysine N-methyltransferase NSD2 (Homo sapiens, UniProt O96028); assay type: biochemical
T3 sequence (O96028 whole entry): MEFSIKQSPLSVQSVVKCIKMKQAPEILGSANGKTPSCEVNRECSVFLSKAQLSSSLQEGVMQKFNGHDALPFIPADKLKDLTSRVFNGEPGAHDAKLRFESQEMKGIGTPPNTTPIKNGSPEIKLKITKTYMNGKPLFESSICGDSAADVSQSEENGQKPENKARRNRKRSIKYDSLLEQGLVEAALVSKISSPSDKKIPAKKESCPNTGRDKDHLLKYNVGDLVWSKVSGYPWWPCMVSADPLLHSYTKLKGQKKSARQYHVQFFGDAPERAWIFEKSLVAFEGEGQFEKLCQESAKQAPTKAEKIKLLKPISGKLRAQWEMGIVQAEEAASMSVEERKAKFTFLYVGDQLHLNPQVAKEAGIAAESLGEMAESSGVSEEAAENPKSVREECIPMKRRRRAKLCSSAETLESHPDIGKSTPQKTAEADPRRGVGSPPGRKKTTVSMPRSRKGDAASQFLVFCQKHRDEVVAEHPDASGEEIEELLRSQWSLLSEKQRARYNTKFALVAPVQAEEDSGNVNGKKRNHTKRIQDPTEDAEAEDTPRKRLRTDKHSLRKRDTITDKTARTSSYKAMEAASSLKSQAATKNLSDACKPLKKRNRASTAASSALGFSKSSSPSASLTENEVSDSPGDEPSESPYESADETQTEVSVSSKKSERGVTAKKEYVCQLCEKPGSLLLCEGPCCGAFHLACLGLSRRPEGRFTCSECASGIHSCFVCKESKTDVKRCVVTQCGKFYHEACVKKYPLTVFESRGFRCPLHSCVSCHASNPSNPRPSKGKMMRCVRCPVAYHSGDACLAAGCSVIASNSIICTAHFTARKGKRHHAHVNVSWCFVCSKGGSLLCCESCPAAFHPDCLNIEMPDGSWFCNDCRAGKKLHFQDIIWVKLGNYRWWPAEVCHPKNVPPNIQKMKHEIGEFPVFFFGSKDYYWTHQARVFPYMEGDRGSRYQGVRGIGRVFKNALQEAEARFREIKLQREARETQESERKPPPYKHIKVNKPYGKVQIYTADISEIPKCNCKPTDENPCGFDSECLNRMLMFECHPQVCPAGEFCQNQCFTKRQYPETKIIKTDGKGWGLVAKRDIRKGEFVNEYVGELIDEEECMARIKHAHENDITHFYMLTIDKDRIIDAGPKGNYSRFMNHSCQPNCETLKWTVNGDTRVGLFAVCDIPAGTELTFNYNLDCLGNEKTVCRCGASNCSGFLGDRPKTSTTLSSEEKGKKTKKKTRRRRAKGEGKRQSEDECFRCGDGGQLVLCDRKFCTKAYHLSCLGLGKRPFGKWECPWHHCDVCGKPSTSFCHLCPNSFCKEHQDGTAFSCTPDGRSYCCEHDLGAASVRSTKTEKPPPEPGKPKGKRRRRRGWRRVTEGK

[7] = target: T4, Tyrosyl-DNA phosphodiesterase 2 (Homo sapiens, UniProt O95551); experiment: potency against TDP2 phosphodiesterase activity – biochemical, epi absorbance, IC50, dose response (AID 743297)
T4 sequence (O95551 whole entry): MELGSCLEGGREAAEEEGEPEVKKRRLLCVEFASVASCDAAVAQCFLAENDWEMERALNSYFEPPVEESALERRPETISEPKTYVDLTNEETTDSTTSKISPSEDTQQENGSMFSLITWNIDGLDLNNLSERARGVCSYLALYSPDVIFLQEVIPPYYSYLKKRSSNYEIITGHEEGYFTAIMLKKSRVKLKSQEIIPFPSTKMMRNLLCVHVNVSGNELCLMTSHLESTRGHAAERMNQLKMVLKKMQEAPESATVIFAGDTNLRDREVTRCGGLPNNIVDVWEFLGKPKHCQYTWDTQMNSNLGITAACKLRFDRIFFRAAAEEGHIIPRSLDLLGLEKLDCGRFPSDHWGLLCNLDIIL

[8] = target: T2, Polyadenylate-binding protein 1; experiment: MLLE domain peptide-binding blockers, IC50 – biochemical, fluorescence polarization, FITC-PAM2 peptide, dose response (AID 602259); assay type: functional; conditions: read-out: IC50_Mean
Protein RecA = target: T5, Protein RecA (Mycobacterium tuberculosis, UniProt P9WHJ3); experiment: Fluorescence Cell-Free Homogeneous Dose Retest to Identify Inhibitors of RecA-Intein Splicing Activity. [Related pubchem assays (depositor defined):AID2097, AID2223, AID489010, AID492950]; assay type: functional
T5 sequence (P9WHJ3 whole entry): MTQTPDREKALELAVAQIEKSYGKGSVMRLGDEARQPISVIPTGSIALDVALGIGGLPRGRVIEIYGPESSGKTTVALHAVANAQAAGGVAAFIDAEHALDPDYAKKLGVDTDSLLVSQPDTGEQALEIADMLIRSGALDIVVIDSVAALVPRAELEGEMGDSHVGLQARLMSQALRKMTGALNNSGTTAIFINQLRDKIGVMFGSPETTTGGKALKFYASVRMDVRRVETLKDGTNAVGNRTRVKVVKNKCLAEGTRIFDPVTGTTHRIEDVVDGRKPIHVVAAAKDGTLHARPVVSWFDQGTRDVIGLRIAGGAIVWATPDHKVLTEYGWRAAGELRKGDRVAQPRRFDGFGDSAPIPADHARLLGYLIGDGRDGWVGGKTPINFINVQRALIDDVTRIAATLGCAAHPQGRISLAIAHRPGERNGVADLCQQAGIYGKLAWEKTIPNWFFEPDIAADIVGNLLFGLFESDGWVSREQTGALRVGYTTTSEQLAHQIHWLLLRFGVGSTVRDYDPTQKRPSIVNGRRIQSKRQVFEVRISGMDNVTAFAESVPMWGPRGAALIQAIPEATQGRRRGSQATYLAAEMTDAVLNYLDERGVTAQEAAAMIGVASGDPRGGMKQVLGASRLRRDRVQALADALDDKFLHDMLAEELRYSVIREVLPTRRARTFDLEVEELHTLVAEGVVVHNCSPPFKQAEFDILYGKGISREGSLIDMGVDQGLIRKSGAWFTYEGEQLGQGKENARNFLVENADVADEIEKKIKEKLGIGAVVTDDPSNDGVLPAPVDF

[9] = target: T6, Replicative DNA helicase DnaB (Mycobacterium tuberculosis, UniProt P9WMR3); experiment: DnaB intein splicing inhibitors, dose response, biochemical, cell-free fluorescence (AID 449749); assay type: functional
T6 sequence (P9WMR3 whole entry): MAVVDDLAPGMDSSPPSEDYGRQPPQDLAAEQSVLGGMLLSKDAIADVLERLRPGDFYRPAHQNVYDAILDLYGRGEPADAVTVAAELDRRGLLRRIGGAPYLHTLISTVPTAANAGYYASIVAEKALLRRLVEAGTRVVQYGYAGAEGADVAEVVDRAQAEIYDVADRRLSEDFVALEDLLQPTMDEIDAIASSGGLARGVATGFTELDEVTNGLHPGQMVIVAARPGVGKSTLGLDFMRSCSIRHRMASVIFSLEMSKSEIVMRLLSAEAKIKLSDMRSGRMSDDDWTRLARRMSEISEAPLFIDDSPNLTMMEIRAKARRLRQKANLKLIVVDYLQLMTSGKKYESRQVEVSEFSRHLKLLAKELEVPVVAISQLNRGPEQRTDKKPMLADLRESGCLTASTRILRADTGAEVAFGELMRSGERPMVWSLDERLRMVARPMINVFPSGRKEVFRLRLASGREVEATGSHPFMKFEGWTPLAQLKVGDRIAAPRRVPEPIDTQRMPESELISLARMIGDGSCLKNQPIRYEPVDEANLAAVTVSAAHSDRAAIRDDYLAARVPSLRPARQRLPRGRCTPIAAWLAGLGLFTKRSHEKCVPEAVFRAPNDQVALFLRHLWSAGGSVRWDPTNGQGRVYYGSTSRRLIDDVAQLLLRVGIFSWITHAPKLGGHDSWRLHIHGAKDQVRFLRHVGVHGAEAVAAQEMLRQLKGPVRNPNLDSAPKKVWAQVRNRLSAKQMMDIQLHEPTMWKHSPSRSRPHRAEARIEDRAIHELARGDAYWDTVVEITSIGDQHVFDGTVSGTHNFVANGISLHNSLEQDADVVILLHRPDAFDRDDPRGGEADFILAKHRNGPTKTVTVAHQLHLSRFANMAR

Cytochrome P450 2C19 = Cytochrome P450 2C19 (Homo sapiens, UniProt P33261); experiment: Cytochrome panel assay with activity outcomes. Panel member name: p450-cyp2c19 Compounds with AC50 equal or less than 10 uM are considered active; assay type: functional; conditions: read-out: AC50
[10] = OVCAR8 cell viability loss – plate reader, dry powder samples, PAX8 project, dose response (AID 743197); assay type: functional, cell-based; conditions: OVCAR-8
Paired box protein Pax-8 = Paired box protein Pax-8 (Homo sapiens, UniProt Q06710); experiment: PAX8 transcriptional activity inhibition in RMG-I – RMG-I cells, luciferase, cherry-pick, dose response (AID 687027); assay type: functional, cell-based;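 note: luciferase reporter driven by Pax8 target thyroperoxidase promoter measured by SteadyGlo luminescence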
[11] = Trypanosoma cruzi growth suppression in host cells – NIH3T3 host cells, beta-gal luminescence, confirmation (AID 2044); assay type: functional, cell-based;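 note: intracellular parasites grown in NIH/3T3 mouse fibroblasts as host cells; luminescent beta-galactosidase reporter signal from transgenic T. cruzi replicating inside host cells; inhibitors lower the luminescence signal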
[12] = NIH3T3 cell viability loss – ATP luminescence, mouse fibroblasts, counter-screen, dose response (AID 2010); assay type: functional, cell-based;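 note: cells exposed to compound for about 90 hours before reading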

DNA dC->dU-editing enzyme APOBEC-3G, sequence (Q9HC16 whole entry): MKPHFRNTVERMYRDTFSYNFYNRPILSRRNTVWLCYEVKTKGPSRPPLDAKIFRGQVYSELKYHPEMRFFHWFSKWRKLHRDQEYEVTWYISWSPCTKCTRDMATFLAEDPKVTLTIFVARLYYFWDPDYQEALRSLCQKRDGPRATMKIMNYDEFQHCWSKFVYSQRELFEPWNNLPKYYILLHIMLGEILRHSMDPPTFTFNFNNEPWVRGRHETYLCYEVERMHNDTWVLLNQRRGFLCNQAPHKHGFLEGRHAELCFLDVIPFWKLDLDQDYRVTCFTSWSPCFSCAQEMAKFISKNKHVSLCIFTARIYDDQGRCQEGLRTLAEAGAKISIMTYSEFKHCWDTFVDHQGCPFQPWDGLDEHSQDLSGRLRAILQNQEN
DNA dC->dU-editing enzyme APOBEC-3A, sequence (P31941 whole entry): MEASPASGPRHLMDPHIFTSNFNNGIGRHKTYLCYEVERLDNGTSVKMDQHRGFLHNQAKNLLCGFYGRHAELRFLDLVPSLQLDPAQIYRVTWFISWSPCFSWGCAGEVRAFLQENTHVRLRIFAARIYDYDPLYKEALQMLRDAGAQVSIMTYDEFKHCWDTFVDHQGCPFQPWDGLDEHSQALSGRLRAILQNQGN
Cytochrome P450 2C9, sequence (P11712 whole entry): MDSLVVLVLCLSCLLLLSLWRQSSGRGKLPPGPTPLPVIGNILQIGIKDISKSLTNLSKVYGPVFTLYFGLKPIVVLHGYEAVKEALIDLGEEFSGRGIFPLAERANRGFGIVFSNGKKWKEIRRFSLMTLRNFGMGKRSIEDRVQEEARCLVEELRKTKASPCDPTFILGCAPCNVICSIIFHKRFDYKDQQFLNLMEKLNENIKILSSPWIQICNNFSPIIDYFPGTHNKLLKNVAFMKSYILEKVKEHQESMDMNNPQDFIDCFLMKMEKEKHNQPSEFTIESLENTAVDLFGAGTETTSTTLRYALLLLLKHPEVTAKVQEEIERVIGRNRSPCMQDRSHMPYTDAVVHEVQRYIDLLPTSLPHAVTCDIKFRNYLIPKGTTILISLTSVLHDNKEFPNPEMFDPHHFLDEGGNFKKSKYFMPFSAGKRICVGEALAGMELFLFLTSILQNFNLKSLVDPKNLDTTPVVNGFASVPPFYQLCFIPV
T2 sequence (P11940 whole entry): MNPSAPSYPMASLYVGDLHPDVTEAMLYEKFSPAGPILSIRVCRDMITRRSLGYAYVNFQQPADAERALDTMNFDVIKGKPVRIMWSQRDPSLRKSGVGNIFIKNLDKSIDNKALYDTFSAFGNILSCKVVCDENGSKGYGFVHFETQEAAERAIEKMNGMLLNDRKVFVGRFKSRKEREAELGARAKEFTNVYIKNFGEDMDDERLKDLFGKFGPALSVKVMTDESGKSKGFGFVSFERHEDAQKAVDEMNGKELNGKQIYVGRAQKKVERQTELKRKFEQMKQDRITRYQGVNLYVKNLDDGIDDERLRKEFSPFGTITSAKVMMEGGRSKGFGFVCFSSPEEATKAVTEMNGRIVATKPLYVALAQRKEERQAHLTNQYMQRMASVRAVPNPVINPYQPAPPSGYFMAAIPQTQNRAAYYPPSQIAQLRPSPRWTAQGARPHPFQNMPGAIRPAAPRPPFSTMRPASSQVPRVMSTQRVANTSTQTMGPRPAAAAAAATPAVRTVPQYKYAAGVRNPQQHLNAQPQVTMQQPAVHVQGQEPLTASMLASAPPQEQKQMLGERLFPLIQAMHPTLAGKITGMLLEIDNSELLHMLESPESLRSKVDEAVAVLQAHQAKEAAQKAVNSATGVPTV
Cytochrome P450 3A4, sequence (P08684 whole entry): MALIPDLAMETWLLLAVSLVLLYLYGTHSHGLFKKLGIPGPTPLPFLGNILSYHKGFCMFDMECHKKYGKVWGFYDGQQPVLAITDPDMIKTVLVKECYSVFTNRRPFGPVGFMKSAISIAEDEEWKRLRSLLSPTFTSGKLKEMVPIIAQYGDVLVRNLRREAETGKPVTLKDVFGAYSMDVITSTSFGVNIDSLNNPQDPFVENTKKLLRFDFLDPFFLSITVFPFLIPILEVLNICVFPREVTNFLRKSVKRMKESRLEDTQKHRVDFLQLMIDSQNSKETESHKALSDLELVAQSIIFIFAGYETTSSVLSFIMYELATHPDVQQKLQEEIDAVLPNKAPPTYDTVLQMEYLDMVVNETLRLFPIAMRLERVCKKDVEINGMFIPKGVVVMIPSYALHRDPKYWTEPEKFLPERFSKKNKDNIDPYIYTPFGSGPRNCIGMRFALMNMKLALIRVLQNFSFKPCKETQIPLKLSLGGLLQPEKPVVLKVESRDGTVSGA
Paired box protein Pax-8, sequence (Q06710 whole entry): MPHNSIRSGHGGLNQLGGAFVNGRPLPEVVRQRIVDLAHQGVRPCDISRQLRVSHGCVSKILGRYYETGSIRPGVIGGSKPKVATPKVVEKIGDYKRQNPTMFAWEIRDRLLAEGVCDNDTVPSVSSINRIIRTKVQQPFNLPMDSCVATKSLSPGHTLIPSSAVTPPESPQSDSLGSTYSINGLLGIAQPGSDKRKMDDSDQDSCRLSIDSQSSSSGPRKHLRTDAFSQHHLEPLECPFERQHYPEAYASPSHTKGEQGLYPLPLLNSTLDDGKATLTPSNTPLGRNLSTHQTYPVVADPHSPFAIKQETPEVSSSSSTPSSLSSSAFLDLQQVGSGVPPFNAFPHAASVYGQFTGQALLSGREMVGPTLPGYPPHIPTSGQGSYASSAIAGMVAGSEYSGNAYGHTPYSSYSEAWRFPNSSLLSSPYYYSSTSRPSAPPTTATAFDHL
Cytochrome P450 2C19, sequence (P33261 whole entry): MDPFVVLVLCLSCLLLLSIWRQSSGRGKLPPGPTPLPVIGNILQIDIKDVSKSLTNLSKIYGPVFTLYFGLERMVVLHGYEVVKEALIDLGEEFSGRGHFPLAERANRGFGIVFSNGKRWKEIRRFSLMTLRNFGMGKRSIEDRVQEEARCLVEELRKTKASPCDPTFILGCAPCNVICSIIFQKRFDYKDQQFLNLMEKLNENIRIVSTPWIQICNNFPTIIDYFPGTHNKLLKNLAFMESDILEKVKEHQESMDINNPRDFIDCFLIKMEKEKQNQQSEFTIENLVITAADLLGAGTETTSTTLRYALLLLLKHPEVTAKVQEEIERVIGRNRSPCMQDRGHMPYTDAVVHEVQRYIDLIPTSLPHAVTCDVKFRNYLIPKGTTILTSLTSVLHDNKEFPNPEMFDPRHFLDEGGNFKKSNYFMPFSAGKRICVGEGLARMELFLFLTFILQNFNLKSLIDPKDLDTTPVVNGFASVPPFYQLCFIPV
FAD-linked sulfhydryl oxidase ALR, sequence (P55789 whole entry): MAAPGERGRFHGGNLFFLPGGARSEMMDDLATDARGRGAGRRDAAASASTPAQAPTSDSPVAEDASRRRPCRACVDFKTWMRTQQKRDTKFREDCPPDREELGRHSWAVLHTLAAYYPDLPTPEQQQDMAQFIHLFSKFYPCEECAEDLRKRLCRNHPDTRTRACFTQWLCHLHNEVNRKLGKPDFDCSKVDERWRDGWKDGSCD
Cytochrome P450 2D6, sequence (P10635 whole entry): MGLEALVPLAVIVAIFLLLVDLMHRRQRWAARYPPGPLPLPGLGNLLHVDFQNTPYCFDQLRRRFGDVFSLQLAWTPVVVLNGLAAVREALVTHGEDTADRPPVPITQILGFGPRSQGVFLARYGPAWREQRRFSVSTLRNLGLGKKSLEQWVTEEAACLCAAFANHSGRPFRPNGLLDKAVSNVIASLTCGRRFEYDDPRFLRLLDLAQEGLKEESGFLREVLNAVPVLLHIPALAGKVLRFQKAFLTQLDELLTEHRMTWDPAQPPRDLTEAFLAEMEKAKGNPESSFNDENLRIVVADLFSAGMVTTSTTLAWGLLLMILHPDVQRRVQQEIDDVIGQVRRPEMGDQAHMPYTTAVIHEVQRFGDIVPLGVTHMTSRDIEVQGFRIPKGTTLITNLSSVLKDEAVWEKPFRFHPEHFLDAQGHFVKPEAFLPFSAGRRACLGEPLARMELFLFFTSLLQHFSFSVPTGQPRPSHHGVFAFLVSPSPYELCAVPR

O=[N+]([O-])c1cc2c(cc1/C=N/c1ccccc1)OCO2
IC50 [1]: > 50 µM (not active) | AC50 (Cytochrome P450 3A4): 20 µM (inconclusive) | AC50 (Cytochrome P450 2D6): 25.1 µM (inconclusive) | AC50 (Cytochrome P450 2C9): 10 µM (inconclusive)

CC(C)C(NC(=O)COc1ccc2ccccc2c1)C(=O)N/N=C/C=C/c1ccccc1 (stereo unspecified)
IC50 [2]: 3.22 µM (active) | IC50 [3]: 4.97 µM (active)

CC(=O)Nc1cc(-c2ccccc2)ccc1O
IC50 [2]: 7.17 µM (active) | IC50 [3]: 16.5 µM (active) | AC50 [4]: 1.1 µM (active)

CCOCc1cnc(C)nc1NCC(=O)c1c(C)[nH]c2cc(C)ccc12
IC50 [2]: 4.29 µM (active) | IC50 [3]: 4.04 µM (active)

C=CCN(CC=C)C(=S)Nc1ccc2nsnc2c1
IC50 [5]: > 66 µM (inactive) | AC50 [6]: 15 µM (active) | IC50 [7]: > 128 µM (inactive) | IC50 [8]: > 66 µM (inactive)

CCOc1cc(/C=C2/C(=O)N(c3ccccc3)N=C2C)ccc1OC(=O)c1ccco1
AC50 (Cytochrome P450 3A4): 25.1 µM (inconclusive) | EC50 (Protein RecA): 1.64 µM (active) | AC50 [9]: 2.68 µM (active) | IC50 [7]: 119 µM (inactive)

CCCC[N+]12CCC(CC1)C(C(=O)c1cccs1)C2 (stereo unspecified)
IC50 [2]: 2.42 µM (active) | AC50 (Cytochrome P450 2C19): 39.8 µM (inconclusive) | IC50 [3]: 2.56 µM (active) | AC50 (Cytochrome P450 2C9): 10 µM (inconclusive)

C[C@@H]1CCCCO[C@H](CN(C)Cc2ccc(C(F)(F)F)cc2)[C@@H](C)CN([C@@H](C)CO)C(=O)c2cc(NS(=O)(=O)c3ccc(Cl)cc3)ccc2O1
AC50 [10]: 40.7 µM (active) | AC50 (Paired box protein Pax-8): 6.82 µM (active)

COCC(C)N1C(=O)Cc2c1nc(N)c1c(N)nc(N3CCN(c4ccccc4F)CC3)c(C#N)c21 (stereo unspecified)
IC50 [1]: > 50 µM (not active)

CC1=CC(=Nc2c(C)n(C)n(-c3ccccc3)c2=O)C=C(C)C1=O
IC50 [1]: 13.2 µM (active)

CN1CCC(N(C)S(=O)(=O)c2ccc(NC(=O)COc3ccc(F)cc3)cc2)CC1
EC50 [11]: 0.835 µM (active) | IC50 [2]: 3.71 µM (active) | IC50 [3]: 3.53 µM (active) | EC50 [12]: > 60 µM (not active)
